Legend:
[1] = Cytotoxicity against human MT4 cells assessed as reduction in cell viability measured after 4 days by MTT assay; type: cell-based; conditions: time 4 day
[2] = Binding affinity to LEDGF/p75 binding pocket of integrase in HIV-1 NL432 infected in human MT4 cells assessed as allosteric inhibition of IN-LEDGF/p75 interaction by measuring inhibition of virus-induced cytopathicity measured after 4 days by MTT assay; type: cell-based; conditions: Human immunodeficiency virus 1, NL432, MT4, 96 h
[3] = Metabolic stability in human liver microsomes assessed as parent compound remaining at 0.5 uM incubated for 30 mins by LC-MS/MS analysis; type: ADME, Microsome; conditions: read-out: Stabilty
[4] = Half-life in Sprague-Dawley rat at 0.5 mg/kg, iv and 1 mg/kg, po administered as cassette dosing measured for 24 hrs by LC-MS/MS analysis; type: ADME, organism-based; conditions: in vivo
[5] = AUC in Sprague-Dawley rat at 0.5 mg/kg, iv measured for 24 hrs by LC-MS/MS analysis; type: ADME, organism-based; set-up: dose 0.5 mg/kg, time 24 hrs; conditions: in vivo
[6] = Metabolic stability in rat liver microsomes assessed as parent compound remaining at 0.5 uM incubated for 30 mins by LC-MS/MS analysi; type: ADME, Microsome; conditions: read-out: Stabilty
[7] = Total clearance in Sprague-Dawley rat at 0.5 mg/kg, iv and 1 mg/kg, po administered as cassette dosing measured for 24 hrs by LC-MS/MS analysis; type: ADME, organism-based; conditions: in vivo
[8] = Oral bioavailability in Sprague-Dawley rat 1 mg/kg administered as cassette dosing measured for 24 hrs by LC-MS/MS analysis; type: ADME, organism-based; conditions: in vivo

SMILES	CC50 at 96 h [1] [nM]	EC50 [2] [nM]	further results
Cc1ccc(-c2c(C)c(-c3ccc4c(c3)CCCO4)c(C(OC(C)(C)C)C(=O)O)c(C)c2NS(C)(=O)=O)cc1C (centres undefined)	28000	22	
Cc1ccc(-c2c(C)c(-c3ccc4c(c3)CCO4)c(C(OC(C)(C)C)C(=O)O)c(C)c2NS(C)(=O)=O)cc1C (centres undefined)	38000	35	
Cc1ccc(-c2c(C)c(-c3ccc(C)c(C)c3)c(C(OC(C)(C)C)C(=O)O)c(C)c2NCc2ccccc2)cc1C (centres undefined)	4000	480	
Cc1ccc(-c2c(C)c(-c3ccc4c(c3)NCCO4)c(C(OC(C)(C)C)C(=O)O)c(C)c2NS(C)(=O)=O)cc1C (centres undefined)	42000	330	
CCC(=O)Nc1c(C)c(C(OC(C)(C)C)C(=O)O)c(-c2ccc(C)c(C)c2)c(C)c1-c1ccc(C)c(C)c1 (centres undefined)	15000	19	
Cc1ccc(-c2c(C)c(-c3ccc(C)c(C)c3)c(C(OC(C)(C)C)C(=O)O)c(C)c2NC(=O)Nc2ccccc2)cc1C (centres undefined)	8000	29	
Cc1ccc(-c2c(C)c(-c3ccc(Cl)c(F)c3)c(C(OC(C)(C)C)C(=O)O)c(C)c2NS(C)(=O)=O)cc1C (centres undefined)	22000	26	
Cc1ccc(-c2c(C)c(-c3ccc(C)c(C)c3)c(C(OC(C)(C)C)C(=O)O)c(C)c2NC(=O)c2ccccc2)cc1C (centres undefined)	9100	51	
Cc1ccc(-c2c(C)c(-c3ccc4c(c3C)CCCO4)c(C(OC(C)(C)C)C(=O)O)c(C)c2NS(C)(=O)=O)cc1C (centres undefined)	24000	3.9	remaining at 0.5 h, 0.5 µM [3]: 59%; half-life [4]: 3.1 h; AUC at 24 h [5]: 1190 ng·h/mL; remaining at 0.5 h, 0.5 µM [6]: 61%; clearance [7]: 6.99 mL/min/kg; bioavailability [8]: 36%
Cc1ccc(-c2c(C)c(-c3ccccc3)c(C(OC(C)(C)C)C(=O)O)c(C)c2NS(C)(=O)=O)cc1C (centres undefined)	> 50000	34	
Cc1ccc(-c2c(C)c(-c3ccc(C)c(C)c3)c(C(OC(C)(C)C)C(=O)O)c(C)c2NS(=O)(=O)c2ccccc2)cc1C (centres undefined)	11000	33	
CNc1c(C)c(C(OC(C)(C)C)C(=O)O)c(-c2ccc(C)c(C)c2)c(C)c1-c1ccc(C)c(C)c1 (centres undefined)	8800	31	
Cc1ccc(-c2c(C)c(-c3ccc(C)c(C)c3)c(C(OC(C)(C)C)C(=O)O)c(C)c2NS(=O)(=O)C2CC2)cc1C (centres undefined)	11000	29	
Cc1ccc(-c2c(C)c(-c3ccc(Cl)cc3)c(C(OC(C)(C)C)C(=O)O)c(C)c2NS(C)(=O)=O)cc1C (centres undefined)	26000	11	
Cc1ccc(-c2c(C)c(-c3ccc4c(c3)N(C)CCO4)c(C(OC(C)(C)C)C(=O)O)c(C)c2NS(C)(=O)=O)cc1C (centres undefined)	31000	31	
Cc1ccc(-c2c(C)c(-c3ccc(C)c(C)c3)c(C(OC(C)(C)C)C(=O)O)c(C)c2N)cc1C (centres undefined)	12000	27	
CNC(=O)Nc1c(C)c(C(OC(C)(C)C)C(=O)O)c(-c2ccc(C)c(C)c2)c(C)c1-c1ccc(C)c(C)c1 (centres undefined)	20000	77	
CCNC(=O)Nc1c(C)c(C(OC(C)(C)C)C(=O)O)c(-c2ccc(C)c(C)c2)c(C)c1-c1ccc(C)c(C)c1 (centres undefined)	15000	37	
Cc1ccc(-c2c(C)c(-c3ccc(C)c(C)c3)c(C(OC(C)(C)C)C(=O)O)c(C)c2NS(C)(=O)=O)cc1C (centres undefined)	15000	11	
Cc1nc2ccccc2c(-c2ccc3c4c(ccnc24)CCO3)c1[C@H](OC(C)(C)C)C(=O)O [BI-224436]	> 50000	56	remaining at 0.5 h, 0.5 µM [3]: 98%; half-life [4]: 4.2 h; AUC at 24 h [5]: 7680 ng·h/mL; remaining at 0.5 h, 0.5 µM [6]: 100%; clearance [7]: 1.09 mL/min/kg; bioavailability [8]: 64%
CC(=O)Nc1c(C)c(C(OC(C)(C)C)C(=O)O)c(-c2ccc(C)c(C)c2)c(C)c1-c1ccc(C)c(C)c1 (centres undefined)	19000	19	

From ChEMBL document CHEMBL4725334, “Discovery of novel integrase-LEDGF/p75 allosteric inhibitors based on a benzene scaffold” (Bioorg Med Chem, 2020)
